According to patent US9169254B2, “Spiroimidazolone derivative” (Chugai Seiyaku Kabushiki Kaisha, priority 2009, dated 2015):

Each compound was assayed against T1, human PTH1 receptor (Homo sapiens, UniProt Q03431) (assay: In vitro cAMP signal activity in HKRK-B7 cells (LLC-PK1 cells overexpressing the human PTH1 receptor)). Settings: HKRK-B7 cells; compound at 1×10^−3 M; cAMP produced as percentage of that produced by hPTH(1-34) at 100 nM.
T1 sequence (Q03431 27-593): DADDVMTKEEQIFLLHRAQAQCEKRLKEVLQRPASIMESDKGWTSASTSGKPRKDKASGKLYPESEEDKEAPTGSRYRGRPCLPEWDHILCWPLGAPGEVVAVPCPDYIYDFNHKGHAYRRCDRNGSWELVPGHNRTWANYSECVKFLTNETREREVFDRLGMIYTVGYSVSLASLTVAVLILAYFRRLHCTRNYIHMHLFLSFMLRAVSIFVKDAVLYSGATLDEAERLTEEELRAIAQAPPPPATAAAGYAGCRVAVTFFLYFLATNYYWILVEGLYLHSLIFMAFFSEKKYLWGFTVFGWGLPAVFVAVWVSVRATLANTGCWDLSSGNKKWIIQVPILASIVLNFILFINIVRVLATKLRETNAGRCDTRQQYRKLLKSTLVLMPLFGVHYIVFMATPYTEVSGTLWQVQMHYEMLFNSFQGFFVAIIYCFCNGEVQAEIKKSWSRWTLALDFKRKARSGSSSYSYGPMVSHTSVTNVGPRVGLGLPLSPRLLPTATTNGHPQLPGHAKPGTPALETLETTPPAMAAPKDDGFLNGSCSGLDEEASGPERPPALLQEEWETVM
Format: cell-based

SMILES	cAMP production activity (%)
Cc1cc(N(C)C(N)=O)cc(C)c1C1CC1S(=O)(=O)N1CCC2(CC1)N=C(C1CCC(C)CC1)NC2=O (centres unmarked) [Compound 740, 1-(3,5-Dimethyl-4-{2-[2-(4-methyl-cyclohexyl)-4-oxo-1,3,8-triaza-spiro[4.5]dec-1-ene-8-sulfonyl]-cyclopropyl}-phenyl)-1-methyl-urea]	123
CC(=O)OC[C@H](CN(C(C)=O)c1ccc(CCS(=O)(=O)N2CCC3(CC2)N=C(c2ccc(C(F)(F)F)cc2)NC3=O)c(C)c1)OC(C)=O [Compound 151, acetic acid (S)-1-acetoxymethyl-2-[acetyl-(3-methyl-4-{2-[4-oxo-2-(4-trifluoromethyl-phenyl)-1,3,8-triaza-spiro[4.5]dec-1-ene-8-sulfonyl]-ethyl}-phenyl)-amino]-ethyl ester]	53
Cc1cc(N(C)C(=O)C(F)(F)F)cc(C)c1CCS(=O)(=O)N1CCC2(CC1)N=C(C1CCCC(C)C1)NC2=O (centres unmarked) [Compound 932, N-(3,5-Dimethyl-4-{2-[2-(3-methyl-cyclohexyl)-4-oxo-1,3,8-triaza-spiro[4.5]dec-1-ene-8-sulfonyl]-ethyl}-phenyl)-2,2,2-trifluoro-N-methyl-acetamide]	66
Cc1cc(C2=NC3(CCN(S(=O)(=O)/C=C/c4c(C)cc(C(=O)N5CCC(O)(CF)CC5)cc4C)CC3)C(=O)N2)ccc1C(F)(F)F [Compound 1254, 8-{(E)-2-[4-(4-fluoromethyl-4-hydroxy-piperidine-1-carbonyl)-2,6-dimethyl-phenyl]-ethenesulfonyl}-2-(3-methyl-4-trifluoromethyl-phenyl)-1,3,8-triaza-spiro[4.5]dec-1-en-4-one]	87
CCOCc1cc(NC(C)=O)ccc1/C=C/S(=O)(=O)N1CCC2(CC1)N=C(C1CCC(C)CC1)NC2=O (centres unmarked) [Compound 576, N-(3-ethoxymethyl-4-{(E)-2-[2-(4-methyl-cyclohexyl)-4-oxo-1,3,8-triaza-spiro[4.5]dec-1-ene-8-sulfonyl]-vinyl}-phenyl)-acetamide]	95
Cc1cc(C(=O)N2CCC(O)(CF)CC2)cc(C)c1/C=C/S(=O)(=O)N1CCC2(CC1)N=C(c1ccc(F)c(C)c1C)NC2=O [Compound 1240, 2-(4-fluoro-2,3-dimethyl-phenyl)-8-{(E)-2-[4-(4-fluoromethyl-4-hydroxy-piperidine-1-carbonyl)-2,6-dimethyl-phenyl]-ethenesulfonyl}-1,3,8-triaza-spiro[4.5]dec-1-en-4-one]	95
CNC(=O)c1ccccc1CCS(=O)(=O)N1CCC2(CC1)N=C(C1CCCCC1)NC2=O [Compound 421, 2-[2-(2-Cyclohexyl-4-oxo-1,3,8-triaza-spiro[4.5]dec-1-ene-8-sulfonyl)-ethyl]-N-methyl-benzamide]	68
CCOC(=O)CCCCCCCCCCCC1=NC2(CCN(S(=O)(=O)CCc3c(C)cc(N(C)C(N)=O)cc3C)CC2)C(=O)N1 [Compound 1347, 12-(8-{2-[2,6-dimethyl-4-(1-methyl-ureido)-phenyl]-ethanesulfonyl}-4-oxo-1,3,8-triaza-spiro[4.5]dec-1-en-2-yl)-dodecanoic acid ethyl ester]	87
Cc1c(/C=C/S(=O)(=O)N2CCC3(CC2)N=C(c2cccc(OC(F)(F)F)c2)NC3=O)cccc1OCCC(O)CO (centres unmarked) [Compound 254, 8-{(E)-2-[3-(3,4-Dihydroxy-butoxy)-2-methyl-phenyl]-ethenesulfonyl}-2-(3-trifluoromethoxy-phenyl)-1,3,8-triaza-spiro[4.5]dec-1-en-4-one]	97
Cc1cc(NC[C@H](O)CO)ccc1CCS(=O)(=O)N1CCC2(CC1)N=C(c1cccc(Cl)c1)NC2=O [Compound 157, 2-(3-chloro-phenyl)-8-{2-[4-((S)-2,3-dihydroxy-propylamino)-2-methyl-phenyl]-ethanesulfonyl}-1,3,8-triaza-spiro[4.5]dec-1-en-4-one]	70
Cc1cc(N(C)C(N)=O)ccc1/C=C/S(=O)(=O)N1CCC2(CC1)N=C(c1cccc(OC(F)(F)F)c1)NC2=O [Compound 458, 1-methyl-1-(3-methyl-4-{(E)-2-[4-oxo-2-(3-trifluoromethoxy-phenyl)-1,3,8-triaza-spiro[4.5]dec-1-ene-8-sulfonyl]-vinyl}-phenyl)-urea]	77
Cc1cc(C(=O)N2CCCN2)cc(C)c1/C=C/S(=O)(=O)N1CCC2(CC1)N=C(C1CCC(CCC(F)(F)F)CC1)NC2=O (centres unmarked) [Compound 997, 8-{(E)-2-[2,6-dimethyl-4-(pyrazolidine-1-carbonyl)-phenyl]-ethenesulfonyl}-2-[4-(3,3,3-trifluoro-propyl)-cyclohexyl]-1,3,8-triaza-spiro[4.5]dec-1-en-4-one]	74
CC(=O)N(CCO)c1cc(C)c(/C=C/S(=O)(=O)N2CCC3(CC2)N=C(c2ccc(F)c(C(F)(F)F)c2)NC3=O)c(C)c1 [Compound 718, N-(4-{(E)-2-[2-(4-Fluoro-3-trifluoromethyl-phenyl)-4-oxo-1,3,8-triaza-spiro[4.5]dec-1-ene-8-sulfonyl]-vinyl}-3,5-dimethyl-phenyl)-N-(2-hydroxy-ethyl)-acetamide]	74
Cc1cc(C(=O)N2CCC(O)(CF)CC2)cc(C)c1CCS(=O)(=O)N1CCC2(CC1)N=C(c1ccc3c(c1)OC(F)(F)C(F)(F)O3)NC2=O [Compound 1281, 8-{2-[4-(4-fluoromethyl-4-hydroxy-piperidine-1-carbonyl)-2,6-dimethyl-phenyl]-ethanesulfonyl}-2-(2,2,3,3-tetrafluoro-2,3-dihydro-benzo[1,4]dioxin-6-yl)-1,3,8-triaza-spiro[4.5]dec-1-en-4-one]	95
CC(=O)N(c1ccc(/C=C/S(=O)(=O)N2CCC3(CC2)N=C(c2cccc(OC(F)(F)F)c2)NC3=O)c(C)c1)C(C)C [Compound 603, N-isopropyl-N-(3-methyl-4-{(E)-2-[4-oxo-2-(3-trifluoromethoxy-phenyl)-1,3,8-triaza-spiro[4.5]dec-1-ene-8-sulfonyl]-vinyl}-phenyl)-acetamide]	69
Cc1cc(C(=O)N2CCC(O)(CF)CC2)cc(C)c1/C=C/S(=O)(=O)N1CCC2(CC1)N=C(c1ccc(F)c(C(F)F)c1)NC2=O [Compound 1256, 2-(3-difluoromethyl-4-fluoro-phenyl)-8-{(E)-2-[4-(4-fluoromethyl-4-hydroxy-piperidine-1-carbonyl)-2,6-dimethyl-phenyl]-ethenesulfonyl}-1,3,8-triaza-spiro[4.5]dec-1-en-4-one]	72
Cc1cc(C(=O)N(C)C)ccc1-c1ccc(S(=O)(=O)N2CCC3(CC2)N=C(c2cccc(C(F)(F)F)c2)NC3=O)s1 [Compound 331, 3,N,N-trimethyl-4-{5-[4-oxo-2-(3-trifluoromethyl-phenyl)-1,3,8-triaza-spiro[4.5]dec-1-ene-8-sulfonyl]-thiophen-2-yl}-benzamide]	55
O=C1NC(c2ccc(F)c(C(F)(F)F)c2)=NC12CCN(S(=O)(=O)/C=C/c1cccc3c1ccn3C[C@H](O)CO)CC2 [Compound 643, 8-{(E)-2-[1-((S)-2,3-dihydroxy-propyl)-1H-indol-4-yl]-ethenesulfonyl}-2-(4-fluoro-3-trifluoromethyl-phenyl)-1,3,8-triaza-spiro[4.5]dec-1-en-4-one]	94
CC(=O)Nc1cc(C)c(/C=C/S(=O)(=O)N2CCC3(CC2)N=C(c2cccc(OC(F)(F)F)c2)NC3=O)c(C)c1 [Compound 238, N-(3,5-dimethyl-4-{(E)-2-[4-oxo-2-(3-trifluoromethoxy-phenyl)-1,3,8-triaza-spiro[4.5]dec-1-ene-8-sulfonyl]-vinyl}-phenyl)-acetamide]	90
Cc1cc(C(=O)N2CCC(O)(CF)CC2)cc(C)c1/C=C/S(=O)(=O)N1CCC2(CC1)N=C(c1ccc(OCC(F)(F)C(F)(F)F)c(C(F)(F)F)c1)NC2=O [Compound 1249, 8-{(E)-2-[4-(4-fluoromethyl-4-hydroxy-piperidine-1-carbonyl)-2,6-dimethyl-phenyl]-ethenesulfonyl}-2-[4-(2,2,3,3,3-pentafluoro-propoxy)-3-trifluoromethyl-phenyl]-1,3,8-triaza-spiro[4.5]dec-1-en-4-one]	62
CC(=O)NCc1cc(C)c(/C=C/S(=O)(=O)N2CCC3(CC2)N=C(C2CCC(CCC(F)(F)F)CC2)NC3=O)c(C)c1 (centres unmarked) [Compound 558, N-[3,5-dimethyl-4-((E)-2-{4-oxo-2-[4-(3,3,3-trifluoro-propyl)-cyclohexyl]-1,3,8-triaza-spiro[4.5]dec-1-ene-8-sulfonyl}-vinyl)-benzyl]-acetamide]	74
O=C1NC(CCC2CCCCC2)=NC12CCN(S(=O)(=O)c1cccc(Cl)c1)CC2 [Compound 30, 8-(3-chloro-benzenesulfonyl)-2-(2-cyclohexyl-ethyl)-1,3,8-triaza-spiro[4.5]dec-1-en-4-one]	26
Cc1cc(N(C)C(N)=O)cc(C)c1CCS(=O)(=O)N1CCC2(CC1)N=C(C(F)CCCCCCCC(F)(F)F)NC2=O (centres unmarked) [Compound 1151, 1-(3,5-Dimethyl-4-{2-[4-oxo-2-(1,9,9,9-tetrafluoro-nonyl)-1,3,8-triaza-spiro[4.5]dec-1-ene-8-sulfonyl]-ethyl}-phenyl)-1-methyl-urea]	105
